Species: Rattus norvegicus
Experiment: DrugMatrix - Regimen: Daily Repeat
Type: toxicity, organism-based, Sprague-Dawley
Parameters: regimen Daily Repeat, gender Male, age 6-8 weeks
Settings: in vivo, po, route oral GAVAGE, vehicle .5 % CMC; for ABSOLUTE BASOPHIL / ABSOLUTE EOSINOPHIL / ABSOLUTE LYMPHOCYTE / ABSOLUTE MONOCYTE / ABSOLUTE SEGMENTED NEUTROPHIL / BASOPHIL / EOSINOPHIL / ERYTHROCYTE COUNT / HEMATOCRIT / HEMOGLOBIN / LEUKOCYTE COUNT / LYMPHOCYTE / MEAN CORPUSCULAR HEMOGLOBIN / MEAN CORPUSCULAR HEMOGLOBIN CONCENTRATION / MEAN CORPUSCULAR VOLUME / MONOCYTE / NEUTROPHIL / NUCLEATED RED BLOOD CELLS / PLATELET COUNT: tissue Blood; for ALANINE AMINOTRANSFERASE / ALBUMIN / ALKALINE PHOSPHATASE / ASPARTATE AMINOTRANSFERASE / BLOOD UREA NITROGEN / CARBON DIOXIDE / CHOLESTEROL / CREATINE PHOSPHOKINASE / CREATININE / GLUCOSE / LACTATE DEHYDROGENASE / LIPASE / PHOSPHORUS / SODIUM / TOTAL BILIRUBIN / TOTAL PROTEIN / URIC ACID: tissue Plasma
[1] = 15 mg/kg, 72 h, dose level Low, time 3 day
[2] = 15 mg/kg, 120 h, dose level Low, time 5 day
[3] = 750 mg/kg, 72 h, dose level High, time 3 day
[4] = 750 mg/kg, 120 h, dose level High, time 5 day

## CC(C)(C)c1ccc(C(O)CCCN2CCC(C(O)(c3ccccc3)c3ccccc3)CC2)cc1 (centres undefined) [TERFENADINE]
[1]
  ABSOLUTE BASOPHIL: 0 CELLS/uL
  ABSOLUTE EOSINOPHIL: 0 CELLS/uL
  ABSOLUTE LYMPHOCYTE: 10879.67 CELLS/uL
  ABSOLUTE MONOCYTE: 121.67 CELLS/uL
  ABSOLUTE SEGMENTED NEUTROPHIL: 1165.33 CELLS/uL
  BASOPHIL: 0%
  EOSINOPHIL: 0%
  ERYTHROCYTE COUNT: 5.45 x10E6/uL
  HEMATOCRIT: 33.93%
  HEMOGLOBIN: 12.77 G/DL
  LEUKOCYTE COUNT: 12.17 x10E3/uL
  LYMPHOCYTE: 89.33%
  MEAN CORPUSCULAR HEMOGLOBIN: 23.43 pg
  MEAN CORPUSCULAR HEMOGLOBIN CONCENTRATION: 37.63 G/DL
  MEAN CORPUSCULAR VOLUME: 62.27 fL
  MONOCYTE: 1%
  NEUTROPHIL: 9.67%
  NUCLEATED RED BLOOD CELLS: 0 /100WBC
  PLATELET COUNT: 1158.33 x10E3/uL
  ALANINE AMINOTRANSFERASE: 52.67 u/L
  ALBUMIN: 4.13 G/DL
  ALKALINE PHOSPHATASE: 451 u/L
  ASPARTATE AMINOTRANSFERASE: 72 u/L
  BLOOD UREA NITROGEN: 16.67 mg/dL
  CARBON DIOXIDE: 22.67 mmol/L
  CHOLESTEROL: 70 mg/dL
  CREATINE PHOSPHOKINASE: 139.33 u/L
  CREATININE: 0.18 mg/dL
  GLUCOSE: 155.33 mg/dL
  LACTATE DEHYDROGENASE: 130.33 u/L
  LIPASE: 10.67 u/L
  PHOSPHORUS: 13.47 mg/dL
  SODIUM: 145.6 MEQ/L
  TOTAL BILIRUBIN: 0.17 mg/dL
  TOTAL PROTEIN: 6.1 G/DL
  URIC ACID: 1.37 mg/dL
[2]
  ABSOLUTE BASOPHIL: 0 CELLS/uL
  ABSOLUTE EOSINOPHIL: 0 CELLS/uL
  ABSOLUTE LYMPHOCYTE: 14283 CELLS/uL
  ABSOLUTE MONOCYTE: 352.67 CELLS/uL
  ABSOLUTE SEGMENTED NEUTROPHIL: 1897.67 CELLS/uL
  BASOPHIL: 0%
  EOSINOPHIL: 0%
  ERYTHROCYTE COUNT: 5.72 x10E6/uL
  HEMATOCRIT: 34.8%
  HEMOGLOBIN: 13.17 G/DL
  LEUKOCYTE COUNT: 16.53 x10E3/uL
  LYMPHOCYTE: 86.67%
  MEAN CORPUSCULAR HEMOGLOBIN: 23.03 pg
  MEAN CORPUSCULAR HEMOGLOBIN CONCENTRATION: 37.83 G/DL
  MEAN CORPUSCULAR VOLUME: 60.87 fL
  MONOCYTE: 2%
  NEUTROPHIL: 11.33%
  NUCLEATED RED BLOOD CELLS: 0 /100WBC
  PLATELET COUNT: 993 x10E3/uL
  ALANINE AMINOTRANSFERASE: 51.33 u/L
  ALBUMIN: 4.13 G/DL
  ALKALINE PHOSPHATASE: 285 u/L
  ASPARTATE AMINOTRANSFERASE: 91.33 u/L
  BLOOD UREA NITROGEN: 16 mg/dL
  CARBON DIOXIDE: 26.67 mmol/L
  CHOLESTEROL: 66.67 mg/dL
  CREATINE PHOSPHOKINASE: 518.33 u/L
  CREATININE: 0.2 mg/dL
  GLUCOSE: 156 mg/dL
  LACTATE DEHYDROGENASE: 390.67 u/L
  LIPASE: 10.67 u/L
  PHOSPHORUS: 13.3 mg/dL
  SODIUM: 144.33 MEQ/L
  TOTAL BILIRUBIN: 0.1 mg/dL
  TOTAL PROTEIN: 6 G/DL
  URIC ACID: 1.43 mg/dL
[3]
  ABSOLUTE BASOPHIL: 0 CELLS/uL
  ABSOLUTE EOSINOPHIL: 0 CELLS/uL
  ABSOLUTE LYMPHOCYTE: 14273 CELLS/uL
  ABSOLUTE MONOCYTE: 481.67 CELLS/uL
  ABSOLUTE SEGMENTED NEUTROPHIL: 1312 CELLS/uL
  BASOPHIL: 0%
  EOSINOPHIL: 0%
  ERYTHROCYTE COUNT: 6.18 x10E6/uL
  HEMATOCRIT: 38.5%
  HEMOGLOBIN: 14.53 G/DL
  LEUKOCYTE COUNT: 16.07 x10E3/uL
  LYMPHOCYTE: 88.67%
  MEAN CORPUSCULAR HEMOGLOBIN: 23.5 pg
  MEAN CORPUSCULAR HEMOGLOBIN CONCENTRATION: 37.77 G/DL
  MEAN CORPUSCULAR VOLUME: 62.27 fL
  MONOCYTE: 3%
  NEUTROPHIL: 8.33%
  NUCLEATED RED BLOOD CELLS: 0 /100WBC
  PLATELET COUNT: 1171.33 x10E3/uL
  ALANINE AMINOTRANSFERASE: 99 u/L
  ALBUMIN: 4.33 G/DL
  ALKALINE PHOSPHATASE: 343.33 u/L
  ASPARTATE AMINOTRANSFERASE: 108 u/L
  BLOOD UREA NITROGEN: 13.33 mg/dL
  CARBON DIOXIDE: 21.33 mmol/L
  CHOLESTEROL: 50 mg/dL
  CREATINE PHOSPHOKINASE: 417.33 u/L
  CREATININE: 0.18 mg/dL
  GLUCOSE: 144.33 mg/dL
  LACTATE DEHYDROGENASE: 236.33 u/L
  LIPASE: 8.67 u/L
  PHOSPHORUS: 12.17 mg/dL
  SODIUM: 145.77 MEQ/L
  TOTAL BILIRUBIN: 0.23 mg/dL
  TOTAL PROTEIN: 5.97 G/DL
  URIC ACID: 1.57 mg/dL
[4]
  ABSOLUTE BASOPHIL: 0 CELLS/uL
  ABSOLUTE EOSINOPHIL: 72 CELLS/uL
  ABSOLUTE LYMPHOCYTE: 15584.33 CELLS/uL
  ABSOLUTE MONOCYTE: 134.67 CELLS/uL
  ABSOLUTE SEGMENTED NEUTROPHIL: 2309 CELLS/uL
  BASOPHIL: 0%
  EOSINOPHIL: 0.33%
  ERYTHROCYTE COUNT: 6.8 x10E6/uL
  HEMATOCRIT: 40.3%
  HEMOGLOBIN: 15.4 G/DL
  LEUKOCYTE COUNT: 18.1 x10E3/uL
  LYMPHOCYTE: 86.33%
  MEAN CORPUSCULAR HEMOGLOBIN: 22.7 pg
  MEAN CORPUSCULAR HEMOGLOBIN CONCENTRATION: 38.23 G/DL
  MEAN CORPUSCULAR VOLUME: 59.33 fL
  MONOCYTE: 0.67%
  NEUTROPHIL: 12.67%
  NUCLEATED RED BLOOD CELLS: 0 /100WBC
  PLATELET COUNT: 1002.67 x10E3/uL
  ALANINE AMINOTRANSFERASE: 124.67 u/L
  ALBUMIN: 4.3 G/DL
  ALKALINE PHOSPHATASE: 360.33 u/L
  ASPARTATE AMINOTRANSFERASE: 104.67 u/L
  BLOOD UREA NITROGEN: 16.67 mg/dL
  CARBON DIOXIDE: 27.67 mmol/L
  CHOLESTEROL: 55.67 mg/dL
  CREATINE PHOSPHOKINASE: 566 u/L
  CREATININE: 0.26 mg/dL
  GLUCOSE: 128 mg/dL
  LACTATE DEHYDROGENASE: 180.33 u/L
  LIPASE: 9.67 u/L
  PHOSPHORUS: 12.07 mg/dL
  SODIUM: 145.6 MEQ/L
  TOTAL BILIRUBIN: 0.13 mg/dL
  TOTAL PROTEIN: 6.27 G/DL
  URIC ACID: 1.9 mg/dL

From ChEMBL document CHEMBL3885881, “DrugMatrix”
